Assay results taken from patent US20050049204A1, “Compounds for the treatment of flaviviridae infections” (priority 2003, published 2005).
Structures can show the parent of a compound that is named as a salt. Where two headings read alike, the source gives them in different places.

What was measured:
[1] = tested on: HCV-replicon RNA-containing Huh7 cells (HCV RNA); assay: HCV replicon assay: HCV RNA quantified by Q-RT-PCR after 96 h of compound exposure; format: cell-based, hepatitis C virus (HCV); conditions: for EC90: read-out: Corrected HCV RNA EC90; for effect on cytoplasmic HCV RNA metabolism: replicon system; for log reduction at 10 µM: read-out: Corrected HCV RNA log10 reduction at 10 μM; for specific inhibition of the replicon: RNR inhibitors tested
Procedure: (§1) Incubation times differed according to the type of experiment.

[2] = tested on: rRNA in HCV-replicon RNA-containing Huh7 cells; assay: rRNA levels in HCV replicon cells (cellular toxicity), Q-RT-PCR after 96 h
Procedure: HCV replicon cells were seeded in the presence of test compound at approximately 10^3 cells per well in a 96-well plate and incubated for 96 hours. rRNA and HCV RNA were quantified by Q-RT-PCR. ●: HCV RNA levels; ◯: rRNA levels; ▾: HCV RNA levels after correction (=subtraction of rRNA) for cellular toxicity. […] The plots shown are the mean results of at least three independent experiments. EC90 values as given in Table 1 are read from the HCV curves corrected for cellular toxicity.
HCV-replicon RNA-containing Huh7 cells (Clone A cells; Apath, LLC, St. Louis, Mo.) were kept in exponential growth in DMEM media (high glucose, no pyruvate) containing 10% fetal bovine serum, 1× non-essential amino acids (100 units/ml), penicillin-streptomycin (100 μg/ml), glutamine (0.292 mg/ml), and G418 (1,000 μg/ml). Antiviral assays were performed in the same medium without G418. […] Cells were seeded in a 6-well plate at 10^5 cells per well. Candidate antiviral compounds were tested as described (Stuyver, et al. “A ribonucleoside analogue that blocks the replication of bovine viral diarrhea and hepatitis C viruses in culture” Antimicrob. Agents Chemother., January 2003, 47 (1), 244-254). Incubation times differed according to the type of experiment. At the end of the incubation step, cells were counted using the trypan-blue exclusion method, and total cellular RNA was isolated (Rneasy 96 kit, Qiagen, CA). Replicon RNA and an internal control (TaqMan Ribosomal RNA Control Reagents, Applied Biosystems, CA) were amplified in a single-step, multiplex RT-PCR protocol, as recommended by the manufacturer and as described (Stuyver, et al. “A ribonucleoside analogue that blocks the replication of bovine viral diarrhea and hepatitis C viruses in culture” Antimicrob. Agents Chemother., January 2003, 47 (1), 244-254).
Replicon cells were incubated in the absence or presence of these anti-metabolites for 96 hours, after which intracellular rRNA and HCV RNA levels were quantified (Table 1).

[3] = tested on: HCV replicon RNA in Huh7 cells; assay: Reversal studies with natural nucleosides: HCV RNA; format: cell-based, hepatitis C virus (HCV); conditions: for log10 reduction HCV: no nucleoside
Procedure: as §1
(§2) Cells were incubated with the test compound and, simultaneously, the natural ribo- or 2′-deoxy nucleosides (adenosine, guanosine (G), cytidine (C), uridine (U), 2′-deoxycytidine (dC), 2′-deoxyuridine, thymidine, 2′-deoxyguanosine (dG), and 2′-deoxyadenosine) (Table 2).

[4] = tested on: rRNA in HCV replicon Huh7 cells; assay: Reversal studies with natural nucleosides: rRNA; format: cell-based; conditions: for log10 reduction rRNA: no nucleoside
Procedure: as §1, §2

[5] = 10 μM, 96 h, corrected by subtraction of rRNA
[6] = 100 μM, 96 h, corrected by subtraction of rRNA
[7] = 96 h, read from HCV curves corrected for rRNA reduction
[8] = Hepatitis C virus, Huh-7, 96 h, read-out: Corrected HCV RNA log10 reduction at 100 μM
[9] = Hepatitis C virus, Huh-7, 96 h, read from HCV curves corrected for rRNA reduction

Row | Compound | Corrected HCV RNA log10 reduction at 10 μM [1, 5] [log10] | Log10 RNA reduction (100 μM) HCV ([1]; 100 μM, 96 h) [log10] | Corrected HCV RNA log10 reduction at 100 μM [1, 6] [log10] | Log10 RNA reduction (100 μM) rRNA [2] [log10] | EC90 [1, 9] [µM] | further results
1 | O=c1cnn([C@@H]2O[C@H](CO)[C@@H](O)[C@H]2O)c(=S)[nH]1 [2-thio-6-azauridine] | 0.12 ± 0.10 | 0.16 ± 0.04 | 0.19 ± 0.09 | −0.02 ± 0.12 | – | EC90 [1, 7]: > 100 µM; effect on cytoplasmic HCV RNA metabolism [1]: little effect
2 | O=c1[nH]c(=O)n([C@H]2C[C@H](O)[C@@H](CO)O2)cc1F [2′-deoxy-5FU, 2′-deoxy-5-fluorouridine] | 0.23 ± 0.05 | – | – | 0.73 ± 0.35 | > 100 | log reduction at 100 µM [1, 8]: 0.04 ± 0.25
3 | O=c1cnn([C@@H]2O[C@H](CO)[C@@H](O)[C@H]2O)c(=O)[nH]1 [6-aza uridine, 6-aza-uridine] | – | – | – | 0.61 ± 0.18 | > 100 | effect on cytoplasmic HCV RNA metabolism [1]: little effect
4 | Nc1ccn([C@@H]2C=C(CO)[C@@H](O)[C@H]2O)c(=O)n1 [CPE-C, cyclopentenyl-cytosine] | – | – | – | 1.21 ± 0.16 | 2.5 | log10 reduction HCV including natural nucleoside ([3]; 2 μM + C at 50 μM): 0.30 ± 0.06 log10; log10 reduction HCV including natural nucleoside ([3]; 2 μM + U at 50 μM): 0.58 ± 0.04 log10; log10 reduction HCV ([3]; 2 μM): 1.76 ± 0.04 log10; log10 reduction rRNA including natural nucleoside ([4]; 2 μM + C at 50 μM): −0.04 ± 0.01 log10; log10 reduction rRNA including natural nucleoside ([4]; 2 μM + U at 50 μM): 0.32 ± 0.03 log10; log10 reduction rRNA ([4]; 2 μM): 0.99 ± 0.04 log10
5 | COc1c(C)c2c(c(O)c1CCOP(=O)(O)CP(=O)(O)OC[C@H]1O[C@@H](n3cnc4c(N)ncnc43)[C@H](O)[C@@H]1O)C(=O)OC2 [Compound C2-MAD] | 0.36 ± 0.21 | 1.09 ± 0.21 | 0.08 ± 0.24 | 1.00 ± 0.15 | – | EC90 [1, 7]: > 100 µM
6 | CC(=O)N(O)CCCCCNC(=O)CCC(=O)N(O)CCCCCNC(=O)CCC(=O)N(O)CCCCCN [Deferoxamine, deferoxamine mesylate] | – | – | – | 0.92 ± 0.08 | > 100 | log reduction at 10 µM ([1]; Hepatitis C virus, Huh-7, 96 h): 0.17 ± 0.11; log reduction at 100 µM ([1]; Hepatitis C virus, Huh-7, 100 μM, 96 h, corrected by subtraction of rRNA, read-out: Corrected HCV RNA log10 reduction at 100 μM): 0.08 ± 0.03; log reduction at 100 µM ([1]; Hepatitis C virus, Huh-7, 100 μM, 96 h, read-out: Log10 RNA reduction (100 μM) HCV): 1 ± 0.06; specific inhibition of the replicon [1]: none
7 | Nc1n[nH]c(N)n1 [Guanazole, guanazole] | – | 0.25 ± 0.11 | 0.32 ± 0.08 | 0.07 ± 0.03 | – | EC90 ([1]; Hepatitis C virus, Huh-7, 96 h): > 100 µM; log reduction at 10 µM ([1]; Hepatitis C virus, Huh-7, 96 h): 0.05 ± 0.08; specific inhibition of the replicon [1]: none
8 | NC(=O)NO [Hydroxy Urea, hydroxy urea] | – | – | – | 0.25 ± 0.20 | > 100 | log reduction at 100 µM [1, 8]: -0.08 ± 0.16; log reduction at 10 µM ([1]; Hepatitis C virus, Huh-7, 10 μM, 96 h, corrected by subtraction of rRNA): 0.06 ± 0.04; specific inhibition of the replicon [1]: none
9 | COc1c(C)c2c(c(O)c1C/C=C(\C)CCC(=O)O)C(=O)OC2 [MPA, mycophenolic acid] | 0.22 ± 0.01 | – | – | 1.09 ± 0.28 | > 100 | log reduction at 100 µM [1, 8]: 0.07 ± 0.47
10 | CN(Cc1cnc2nc(N)nc(N)c2n1)c1ccc(C(=O)N[C@@H](CCC(=O)O)C(=O)O)cc1 [Methotrexate, methotrexate] | 0.15 ± 0.01 | – | 0.11 ± 0.09 | 0.07 ± 0.10 | > 100 | –
11 | NC(=O)c1ncn([C@@H]2O[C@H](CO)[C@@H](O)[C@H]2O)c1O [Mizoribine] | −0.14 ± 0.12 | – | – | 0.21 ± 0.50 | > 100 | log reduction at 100 µM [1, 8]: 0.08 ± 0.82
12 | Nc1ccn(C2OC(CO)C(O)C2=CF)c(=O)n1 (stereo not drawn) [Tezacytabine, tezacytabine] | 0.63 ± 0.07 | 1.59 ± 0.08 | −0.19 ± 0.49 | 1.78 ± 0.69 | – | EC90 [1, 7]: > 100 µM; specific inhibition of the replicon [1]: none
13 | NC(=O)c1csc([C@@H]2O[C@H](CO)[C@@H](O)[C@H]2O)n1 [Tiazofurin, tiazofurin] | – | 0.86 ± 0.27 | −0.13 ± 0.37 | 0.99 ± 0.35 | – | EC90 ([1]; Hepatitis C virus, Huh-7, 96 h): > 100 µM; log reduction at 10 µM ([1]; Hepatitis C virus, Huh-7, 96 h): 0.04 ± 0.1
14 | Nc1ccn([C@@H]2O[C@H](CO)[C@@H](O)C2(F)F)c(=O)n1 [dFdC, difluorodeoxycytidine] | 1.32 ± 0.08 | – | – | – | – | EC90 ([1]; Hepatitis C virus, Huh-7, 96 h): 0.17 µM; Corrected HCV RNA log10 reduction ([1]; dFdC tested at 50 μM, 96 h, corrected for rRNA): 1.29 ± 0.11 log10; Log10 RNA reduction rRNA ([2]; dFdC tested at 50 μM): 0.59 ± 0.05 log10; log10 reduction HCV including natural nucleoside ([3]; 1 μM + dC at 50 μM): 0.06 ± 0.00 log10; log10 reduction HCV ([3]; 1 μM): 1.89 ± 0.07 log10; log10 reduction rRNA including natural nucleoside ([4]; 1 μM + dC at 50 μM): 0.07 ± 0.02 log10; log10 reduction rRNA ([4]; 1 μM): 0.52 ± 0.03 log10
15 | Cyclopentyl-cytosine [CP-C] | 0.64 ± 0.10 | 1.97 ± 0.38 | 1.06 ± 0.26 | 0.91 ± 0.13 | – | EC90 [1, 7]: 25 µM; log10 reduction HCV including natural nucleoside ([3]; 20 μM + C at 50 μM): 0.11 ± 0.01 log10; log10 reduction HCV ([3]; 20 μM): 1.80 ± 0.07 log10; log10 reduction HCV including natural nucleoside ([3]; 100 μM + C at 50 μM): 0.32 ± 0.11 log10; log10 reduction HCV ([3]; 100 μM): 2.32 ± 0.08 log10; log10 reduction rRNA including natural nucleoside ([4]; 20 μM + C at 50 μM): 0.02 ± 0.00 log10; log10 reduction rRNA ([4]; 20 μM): 0.87 ± 0.08 log10; log10 reduction rRNA including natural nucleoside ([4]; 100 μM + C at 50 μM): 0.17 ± 0.01 log10; log10 reduction rRNA ([4]; 100 μM): 1.21 ± 0.02 log10
